Data published in patent US4670431A, “Beta-lactam antibacterial agents” (Beecham Group p.l.c., priority 1983, dated 1987).
Converted amounts (≈) assume the structure as drawn. Counter-ions that a name gives are not always drawn.

test system: P. mirabilis 889; test: MIC against P. mirabilis 889; assay type: cell-based, Proteus mirabilis; conditions: not given
From the text: The antibiotic compounds of the present invention are active against a wide range of gram negative and gram positive organisms including E. coli such as, for example ESS, JT4, JT425 and NCTC 10418; Pseudomonas Spp. such Ps.aeruginosa for example 10662 and Dalgleish; Serratia marcescens US32; Klebsiella aerogenes A; Enterobacter cloacae N1; P.mirabilis such as, for example C977 and 889; P.morganii, P.rettgeri; B.subtilis; Staph aureus such as, for example Oxford and Russell; N.catarrhalis 1502; Strep faecalis I; β-Haemolytic Strep CN10. The MIC data included in the following examples is representative of the activity of the compounds of the present invention.

| Compound | MIC against P. mirabilis 889 [µg/mL] |
| --- | --- |
| CCN1CCN(C(=O)N[C@@H](C(=O)N[C@]2(NC=O)C(=O)N3C(C(=O)O)=C(CSc4nnnn4C)C[S+]([O-])[C@@H]32)c2ccc(OC(C)=O)c(OC(C)=O)c2)C(=O)C1=O (single isomer, unassigned) [Example 5 Isomer B, Sodium 7β-[D-2-(3,4-diacetoxyphenyl)-2-[(4-ethyl-2,3-dioxopiperazin-1-yl)carbonylamino]acetamido]-7α-formamido-3-[(1-methyl-1H-tetrazol-5-yl)thiomethyl]-ceph-3-em-4-carboxylate-1-oxide] | 0.06 |
| CCN1CCN(C(=O)N[C@@H](C(=O)N[C@]2(NC=O)C(=O)N3C(C(=O)O)=C(COC(C)=O)C[S+]([O-])[C@@H]32)c2ccc(OC(C)=O)c(OC(C)=O)c2)C(=O)C1=O (single isomer, unassigned) [Example 1 Isomer B, Sodium 7β-[D-2-[(4-ethyl-2,3-dioxopiperazin-1-yl)carbonylamino]-2-(3,4-diacetoxyphenyl)acetamido]-7α-formamidocephalosporanate-1-oxide] | < 0.06 |
| CCN1CCN(C(=O)N[C@@H](C(=O)N[C@]2(NC=O)C(=O)N3C(C(=O)O)=C(COC(C)=O)C[S+]([O-])[C@@H]32)c2ccc(OC(C)=O)c(OC(C)=O)c2)C(=O)C1=O (single isomer, unassigned) [Example 1 Isomer A, Sodium 7β-[D-2-[(4-ethyl-2,3-dioxopiperazin-1-yl)carbonylamino]-2-(3,4-diacetoxyphenyl)acetamido]-7α-formamidocephalosporanate-1-oxide] | 0.5 |
| CCN1CCN(C(=O)N[C@@H](C(=O)N[C@]2(NC=O)C(=O)N3C(C(=O)O)=C(CSc4nnnn4C)C[S+]([O-])[C@@H]32)c2ccc(OC(C)=O)c(OC(C)=O)c2)C(=O)C1=O (single isomer, unassigned) [Example 5 Isomer A, Sodium 7β-[D-2-(3,4-diacetoxyphenyl)-2-[(4-ethyl-2,3-dioxopiperazin-1-yl)carbonylamino]acetamido]-7α-formamido-3-[(1-methyl-1H-tetrazol-5-yl)thiomethyl]-ceph-3-em-4-carboxylate-1-oxide] | 0.5 |
| CCN1CCN(C(=O)N[C@@H](C(=O)N[C@]2(NC=O)C(=O)N3[C@@H](C(=O)O)C(C)(C)[S+]([O-])[C@@H]32)c2ccc(OC(C)=O)c(OC(C)=O)c2)C(=O)C1=O (single isomer, unassigned; isomer b) [Example 18, Sodium 6β-[D-2-[(4-ethyl-2,3-dioxopiperazin-1-yl)carbonylamino]-2-(3,4-diacetoxyphenyl)acetamido]-6α-formamidopenicillanate-1-oxide, Isomer B] | 0.5 |

same assay, conditions: Proteus mirabilis, 889

| MIC [µg/mL] | Compound |
| --- | --- |
| 8 | CC(=O)OCC1=C(C(=O)O)N2C(=O)[C@@](NC=O)(NC(=O)Cc3cccs3)[C@H]2[S@@+]([O-])C1 [Example 27(b), Sodium 7α-Formamido-7β-thien-2-ylacetamidocephalosporanate-1β-oxide] |
| 2 | CC(=O)OCC1=C(C(=O)O)N2C(=O)[C@@](NC=O)(NC(=O)Cc3cccs3)[C@H]2[S@+]([O-])C1 [Example 27(c), Sodium 7α-Formamido-7β-thien-2-ylacetamidocephalosporanate-1α-oxide] |
| 0.25 | CCN1CCN(C(=O)N[C@@H](C(=O)N[C@]2(NC=O)C(=O)N3C(C(=O)O)=C(COC(C)=O)C[S+]([O-])[C@@H]32)c2ccccc2)C(=O)C1=O (single isomer, unassigned) [Example 3 Isomer A, Sodium 7β-[D-2-[(4-Ethyl-2,3-dioxopiperazin-1-yl)carbonylamino]-2-phenylacetamido]-7α-formamidocephalosporanate-1-oxide] |
| 8 (≈ 12.3 µM) | CCN1CCN(C(=O)N[C@@H](C(=O)N[C@]2(NC=O)C(=O)N3C(C(=O)[O-])=C(C[n+]4ccccc4)C[S+]([O-])[C@@H]32)c2ccccc2)C(=O)C1=O (stereo partly drawn) [Example 7, 7β-[D-2-[(4-Ethyl-2,3-dioxopiperazin-1-yl)carbonylamino]-2-phenylacetamido]-7α-formamido-3-pyridiniummethyl-ceph-3-em-4-carboxylate-1-oxide] |
| 2 | CC1(C)[C@H](C(=O)O)N2C(=O)[C@@](NC=O)(NC(=O)[C@H](NC(=O)N3CCN(S(C)(=O)=O)C3=O)c3ccc(O)cc3)[C@H]2[S+]1[O-] (single isomer, unassigned; isomer b) [Example 24, Sodium 6β-[D-2-(4-hydroxyphenyl)-2-[[3-(methylsulphonyl)-2-oxoimidazolidin-1-yl]carbonylamino]acetamido]-6α-formamidopenicillanate-1-oxide (isomer B)] |
| 0.25 | CCN1CCN(C(=O)N[C@@H](C(=O)N[C@]2(NC=O)C(=O)N3C(C(=O)O)=C(CSc4nnnn4C)C[S@@+]([O-])[C@@H]32)c2ccccc2)C(=O)C1=O [Example 8(d), Sodium 7β-[D-2-[(4-Ethyl-2,3-dioxopiperazin-1-yl)carbonylamino]-2-phenylacetamido]-7α-formamido-3-[(1-methyl-1H-tetrazol-5-yl)thiomethyl]ceph-3-em-4-carboxylate-1α-oxide] |
| 0.25 | CCN1CCN(C(=O)N[C@@H](C(=O)N[C@]2(NC=O)C(=O)N3C(C(=O)O)=C(COC(C)=O)C[S@+]([O-])[C@@H]32)c2ccc(O)cc2)C(=O)C1=O (single isomer, unassigned) [Example 14 Isomer A, 7β-[D-2-[(4-Ethyl-2,3-dioxopiperazin-1-yl)carbonylamino]-2-(4-hydroxyphenyl)acetamido]-7α-formamidocephalosporanic acid 1-oxide, sodium salt] |
| 0.12 | CCN1CCN(C(=O)N[C@@H](C(=O)N[C@]2(NC=O)C(=O)N3C(C(=O)O)=C(COC(C)=O)C[S@@+]([O-])[C@@H]32)c2ccc(O)cc2)C(=O)C1=O (single isomer, unassigned) [Example 14 Isomer B, 7β-[D-2-[(4-Ethyl-2,3-dioxopiperazin-1-yl)carbonylamino]-2-(4-hydroxyphenyl)acetamido]-7α-formamidocephalosporanic acid 1-oxide, sodium salt] |
| 8 | CCN1CCN(C(=O)N[C@@H](C(=O)N[C@]2(NC=O)C(=O)N3C(C(=O)O)=C(COC(C)=O)CS(=O)(=O)[C@@H]32)c2ccccc2)C(=O)C1=O [Example 2, Sodium 7β-[D,2-([4-Ethyl-2,3-dioxopiperazin-1-yl]carbonylamino)-2-phenylacetamido]-7α-formamidocephalosporanate-1,1-dioxide] |
| 0.5 (≈ 0.787 µM) | CCN1CCN(C(=O)N[C@@H](C(=O)N[C@]2(NC=O)C(=O)N3C(C(=O)[O-])=C(C[n+]4ccccc4)CS[C@@H]32)c2ccccc2)C(=O)C1=O [Example 7(c), 7β-[D-2-[(4-Ethyl-2.3-dioxopiperazin-1-yl)carbonylamino]-2-phenylacetamido]-7α-formamido-3-pyridiniummethyl-ceph-3-em-4-carboxylate] |
| 0.125 | CCN1CCN(C(=O)N[C@@H](C(=O)N[C@]2(NC=O)C(=O)N3C(C(=O)O)=C(CSc4nnnn4C)CS[C@@H]32)c2ccccc2)C(=O)C1=O [Example 8(b), 7β-[D-2-[(4-Ethyl-2,3-dioxopiperazin-1-yl)carbonylamino]-2-phenylacetamido]-7α-formamido-3-[(1-methyl-1H-tetrazol-5-yl)thiomethyl]ceph-3-em-4-carboxylic acid, sodium salt] |
| 32 (≈ 78.3 µM) | CC1(C)[C@H](C(=O)O)N2C(=O)[C@@](NC=O)(NC(=O)[C@H](N)c3ccccc3)[C@H]2[S+]1[O-] (single isomer, unassigned; isomer b) [Example 23, 6β-(D-2-Amino-2-phenylacetamido)-6α-formamidopenicillanic acid-1-oxide, isomer B] |

| Compound | MIC [µg/mL] |
| --- | --- |
| CCN1CCN(C(=O)N[C@@H](C(=O)N[C@]2(NC=O)C(=O)N3C(C(=O)O)=C(CSc4nnnn4CC(=O)O)C[S@+]([O-])[C@@H]32)c2ccc(OC(C)=O)c(OC(C)=O)c2)C(=O)C1=O (single isomer, unassigned) [Example 15 Isomer A, 3-[(1-Carboxymethyl-1H-tetrazol-5-yl)thiomethyl]-7β-[D-2(3,4-diacetoxyphenyl)-2-[(4-ethyl-2,3-dioxopiperazin-1-yl)carbonylamino]acetamido]-7α-formamidoceph-3-em-4-carboxylic acid-1-oxide, disodium salt] | 0.5 |
| CCN1CCN(C(=O)N[C@@H](C(=O)N[C@]2(NC=O)C(=O)N3[C@@H](C(=O)O)C(C)(C)[S+]([O-])[C@@H]32)c2ccc(OC(C)=O)c(OC(C)=O)c2)C(=O)C1=O (stereo partly drawn) [Example 4, Sodium 6β-[D-2-[(4-ethyl-2,3-dioxopiperazin-1-yl)carbonylamino]-2-(3,4-diacetoxyphenyl)acetamido]-6α-formamidopenicillanate-1-oxide] | 0.12 |
| CCN1CCN(C(=O)N[C@@H](C(=O)N[C@]2(NC=O)C(=O)N3C(C(=O)O)=C(CSc4nnnn4CC(=O)O)C[S@@+]([O-])[C@@H]32)c2ccc(OC(C)=O)c(OC(C)=O)c2)C(=O)C1=O (single isomer, unassigned) [Example 15 Isomer B, 3-[(1-Carboxymethyl-1H-tetrazol-5-yl)thiomethyl]-7β-[D-2(3,4-diacetoxyphenyl)-2-[(4-ethyl-2,3-dioxopiperazin-1-yl)carbonylamino]acetamido]-7α-formamidoceph-3-em-4-carboxylic acid-1-oxide, disodium salt] | 0.25 |

same assay, conditions: Proteus mirabilis, 889, broth

| MIC [µg/mL] | Compound |
| --- | --- |
| 16 | NC(=O)OCC1=C(C(=O)O)N2C(=O)[C@@](NC=O)(NC(=O)Cc3cccs3)[C@H]2SC1 [Example 26(b), Sodium 3-carbamoyloxymethyl-7α-formamido-7β-thien-2-yletamido-ceph-3-em-4-carboxylate] |
